Paper PMC5829257, “Structure, computational and biochemical analysis of PcCel45A endoglucanase from Phanerochaete chrysosporium and catalytic mechanisms of GH45 subfamily C members” (Scientific Reports, 2018)

Target: T1, PcCel45A (Phanerodontia chrysosporium, UniProt B3Y002)
T1 construct: gene egv; mature single catalytic domain; pEXPYR+ vector, secreted from Aspergillus nidulans A773 (Results text says A. niger)
Experiment: X-ray crystallography of the complex
Type: binding
Details: bound at +1 and +2 subsites of the active-site groove; crystals in ammonium sulfate, Hepes pH 7.5, MPD

T1 sequence (B3Y002 entry or part of it): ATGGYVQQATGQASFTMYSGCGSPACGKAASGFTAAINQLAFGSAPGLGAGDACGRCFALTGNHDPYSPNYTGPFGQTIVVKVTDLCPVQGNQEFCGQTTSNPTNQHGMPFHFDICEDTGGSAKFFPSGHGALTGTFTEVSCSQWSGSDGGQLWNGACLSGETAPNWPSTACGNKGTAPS

OC[C@H]1O[C@@H](O[C@H]2[C@H](O)[C@@H](O)C(O)O[C@@H]2CO)[C@H](O)[C@@H](O)[C@@H]1O (stereo partly shown) [cellobiose]
X-ray crystallography of the complex: The structure of the PcCel45A-cellobiose complex revealed a single cellobiose molecule within the active-site groove
